Assay results taken from publication PMC8615111, “Phenolic Thiazoles with Antioxidant and Antiradical Activity. Synthesis, In Vitro Evaluation, Toxicity, Electrochemical Behavior, Quantum Studies and Antimicrobial Screening” (Antioxidants, 2021).

Legend:
[1] = Cyclic voltammetry of the compounds on graphite-based SPE; format: physicochemical; conditions: CV, 0.1 M HClO4, graphite-based SPE
Description: The evaluated compounds’ stock solutions used were prepared at a concentration of 5 mM. To test their redox properties, dilutions of 0.5 mM and 2 mM were prepared in 0.1 M HClO4 electrolyte (pH = 1.2). Screen-printed electrodes (SPEs; Metrohm DropSens, Oviedo, Spain) (planar electrodes) with graphite and gold working electrodes were used. Cyclic voltammetry (CV) and differential pulse voltammetry (DPV) were the electrochemical methods applied. The experimental conditions for each test are mentioned near the corresponding data (Appendix A).
In Figure 2, the cyclic voltammograms (CVs) for each of the compounds considered in this study, compared individually with the voltammogram obtained in the electrolyte (0.1 M HClO4), are presented. Thus, the oxidation/reduction peaks corresponding to the electrochemical transformations suffered by each compound can be observed in the potential range considered, in an acidic environment (low pH). From Figure 3, where the voltammograms of all eight compounds were presented together, a similarity is observed between 8a and 8b, and among the other compounds, whereas 5a and 5b can be noted as having the highest oxidation signals.

[2] = DPPH˙ radical scavenging by cyclic voltammetry; conditions: for Ered (V): 2nd Ered column; for Ired (μA): 2nd Ired
Description: The antioxidant properties were evaluated in terms of their activity against some free radicals, and other compounds reported in the literature, relevant for this purpose, such as: • ferric ions (Fe^3+)—used to test the reduction of the antioxidant character of the compounds; • DPPH˙ free radical– used to test the scavenging effect of the compounds on this radical; • hydrogen peroxide (H2O2)—used to test the scavenging effect of the synthesized molecules on this compound; • 2,2,6,6-tetramethylpiperidinyl-1-oxy (TEMPO)—used to test the scavenging effect of the synthesized molecules on this compound.
The radical scavenging properties of the novel compounds and the other antioxidants were determined using a stock DPPH˙ radical solution prepared in absolute ethanol. The antioxidant samples were mixed with DPPH˙ solution and HClO4 electrolyte and incubated in the dark for 30 min. The remaining redox activity of DPPH was measured by cycling the potential between −0.7 V and 1.2 V, with a scan rate of 0.1 V/s.
The nitrogen-centered 2-2-diphenyl-1-picrylhydrazyl radical (DPPH˙) based assay is one of the most commonly employed method to evaluate the ability of a compound to scavenge or neutralize free radicals based on the reduction of the radical.
Taking into account the redox activity of DPPH˙, its diminution by an antioxidant can also be followed by CV, which is expected to show changes in the voltammetric peaks. Figure A5 reports the electrochemical study of initial electrooxidation of DPPH˙ and the novel compounds compared to remaining peaks after their incubation for 30 min. The decrease of all the peaks after mixture incubation indicates the partial consumption of DPPH˙.

Fe^2+ chelation assay = format: biochemical
Description: The protocol used for assessing Fe^2+ chelating capacity of the compounds was adapted from a report of Benzie and Strain and previously reported by our group. The iron(II) chelation ability of compounds was calculated using Equation (7):(7) iron chelation (%)=control absorbance−sample absorbance/control absorbance×100
The chelating potential for the ferrous ions of the new compounds was determined, based on their competition for Fe^2+ with ferrozine.

[3] = NO˙ radical scavenging assay (Griess reaction); format: biochemical; conditions: 100 µL of test solution 1 mg/mL in DMSO, 150 min, pH 7.4
Description: Scavenging of the NO˙ radical was performed according to some adapted protocols reported in the literature, based on the nitroprusside decomposition at physiological pH and colorimetric quantification of the resulted products using the Griess reaction.
Over 200 µL of 10 mM sodium nitroprusside, 100 µL of test solutions (1 mg/mL in DMSO), and 400 µL phosphate-buffered saline (PBS, pH = 7.4) were added. The mixture was then incubated at room temperature for 150 min on a rotating shaker (GFL Gesellschaft für Labortechnik, Burgwedel, Germany). After that, 1 mL of sulfanilic acid 0.33% in 20% acetic acid was added and after 5 min, 1 mL of naphthylethylenediamine […] 0.1% was added to all test tubes. After 30 min, the absorbance of the sample, given by the chromophore (azo dye) formed during the diazotization of nitrite ions resulting from decomposition of sodium nitroprusside with sulfanilic acid and coupled with naphthylethylenediamine, was measured at 546 nm. The NO˙ radical scavenging activity of the tested compounds was calculated using Equation (3):(3) NO˙ scavenging (%)=control absorbance−sample absorbance/control absorbance×100

[4] = DPPH˙ radical scavenging assay; format: biochemical
Description: The 2,2-diphenyl-1-picrylhydrazyl (DPPH˙) radical scavenging assay is based on the transfer of one hydrogen from the analyzed compound to the violet radical DPPH˙. This will convert it to a yellow compound, the change in absorbance being proportional to the amount of DPPH˙ neutralized, according to Brand-Williams et al..
The preparation of the DPPH˙ reagent was previously reported by our group. […] Over the previous quantities, DMSO was added until a total volume of 50 µL was obtained in all cuvettes, and 1950 µL of DPPH˙ solution was added to all cuvettes; then, they were shaken for well over 10 min in the dark at room temperature. The absorbances of the solutions were measured at λ = 517 nm. The DPPH˙ radical scavenging activity of evaluated compounds was calculated using Equation (2):(2) DPPH scavenging (%)=control absorbance−sample absorbance/control absorbance×100

[5] = compound + DPPH, 30 min, 2nd Eox

SMILES	Eox (V) ([1]; 2nd oxidation peak)	Iox (μA) ([1]; 2nd oxidation peak)	Eox (V) ([1]; 3rd oxidation peak)	Iox (μA) ([1]; 3rd oxidation peak)	Ered (V) ([1]; 3rd reduction peak)	Ired (μA) ([1]; 3rd reduction peak)	Iox (μA) ([2]; compound + DPPH, 30 min)	Eox (V) [2, 5]	Ered (V) ([2]; compound + DPPH, 30 min)	Ired (μA) ([2]; compound + DPPH, 30 min)	Iox (μA) ([2]; compound alone)	Eox (V) ([2]; compound alone, 2nd Eox)	Ered (V) ([2]; compound alone)	Ired (μA) ([2]; compound alone)	Chelation Capacity (%), ferrous ions (Fe^2+ chelation assay; 150 µg/mL)	Chelation Capacity (%), ferrous ions (Fe^2+ chelation assay; 200 µg/mL)	% of NO˙ Scavenged [3]	other results
C/C(=N\Nc1nc(C)cs1)c1ccc(O)cc1O [Compound 5a, Dihydroxy-Phenyl-Thiazol-Hydrazinium chloride]	0.384 V	50.85 μA	0.632 V	19.21 μA	0.256 V	−2.17 μA	13.23 μA	0.362 V	0.188 V	−5.46 μA	43.29 μA	0.339 V	0.137 V	−9.59 μA	11.17%	21.69%	36.26%	Ered (V) ([1]; 1st reduction peak): −0.075 V; Ired (μA) ([1]; 1st reduction peak): −6.62 μA; Eox (V) ([2]; compound + DPPH, 30 min, 3rd Eox column): 0.572 V; Iox (μA) ([2]; compound + DPPH, 30 min, 3rd Iox column): 11.81 μA; Eox (V) ([2]; compound + DPPH, after 30 min of reaction, 1st Eox column): 0.218 V; Iox (μA) ([2]; compound + DPPH, after 30 min of reaction, 1st Iox column): 8.68 μA; Eox (V) ([2]; compound alone, 3rd Eox column): 0.598 V; Iox (μA) ([2]; compound alone, 3rd Iox column): 20.51 μA; Eox (V) ([2]; compound alone, 4th Eox column): 0.987 V; Iox (μA) ([2]; compound alone, 4th Iox column): 15.5 μA
Cc1csc(N/N=C/c2ccc(O)cc2O)n1.Cl [Compound 5b, (E)-2-(2,4-dihydroxybenzylidene)-1-(4-methylthiazol-2-yl)hydrazin-1-ium chloride]	0.425 V	69.35 μA	0.632 V	5.87 μA	0.286 V	−2.86 μA	33.3 μA	0.349 V	0.145 V	−7.56 μA	31.76 μA	0.357 V	0.11 V	−10.26 μA	18.42%	31.33%	35.63%	Ered (V) ([1]; 2nd reduction peak): 0.085 V; Ired (μA) ([1]; 2nd reduction peak): −0.68 μA; Chelation Capacity (%), ferrous ions (Fe^2+ chelation assay; 50 µg/mL): 1.18%; Chelation Capacity (%), ferrous ions (Fe^2+ chelation assay; 100 µg/mL): 8.95%; % of DPPH˙ Scavenged ([4]; 1 µg/mL): 16.46%; % of DPPH˙ Scavenged ([4]; 1.5 µg/mL): 24.42%; % of DPPH˙ Scavenged ([4]; 2 µg/mL): 34.44%; % of DPPH˙ Scavenged ([4]; 3 µg/mL): 52.10%; % of DPPH˙ Scavenged ([4]; 5 µg/mL): 87.08%; IC50 ([4]; DPPH˙ scavenging): 2.90 µg/mL
